Experiments:
[1] = tested on: LECs from adult human skin (HMLEC-dLyAd); test: Lymphatic endothelial cell (LEC) migration scratch assay with HFD-lymph; type: cell-based; details: 2% HFD-lymph; celecoxib 20 μM, MAZ51 5 μM
Method: LECs from adult human skin (HMLEC-dLyAd) were obtained from Lonza (Australia) at the 3rd passage. Cells were thawed and expanded in a T-75 flask at a minimum density of 500,000 cells per flask. Cells were grown in EGM-2MV BulletKit™ medium (CC-3162, Lonza, Australia), which consisted of EBM-2 basal medium supplemented with an EGM-2 SingleQuots™ kit (Lonza, Australia). Flasks were incubated at 37° C. and 5% CO2, and media was changed 24 h after seeding and then every 48 h. Cells were grown to 70-80% confluence and split every 4-5 days. For all experiments, cells were seeded onto plates or coverslips pre-coated with rat tail collagen Type I (50 μg/ml) for 1 h at 37° C. Cells were allowed to grow to 100% confluence (which typically occurred 1.5-2 days after seeding in a cell culture plate) prior to the start of experiments.
Once the LECs reached confluence, the impact of lymph fluid on LEC migration was assessed using a standard scratch assay. […]
Images taken at several time points after wounding (0, 12 and 24 hours) were analyzed using the Fiji distribution of ImageJ to determine the rate of LEC migration over the area of the scratched wound. To enable quantification of the area of the scratch wound, the brightness and contrast of the images was first adjusted to improve the visibility. An outline of the wound was manually drawn and the area of the wound was quantified at each time point. […]

VEGF receptor (VEGFR)-3 = target: T1, VEGF receptor (VEGFR)-3 (Homo sapiens, UniProt P35916); details: endothelial cell lines, including cultured lymphatic endothelial cell lines; cited from earlier work
T1 construct: host or cells: endothelial cell lines, including cultured lymphatic endothelial cell lines
T1 sequence (P35916 25-1363): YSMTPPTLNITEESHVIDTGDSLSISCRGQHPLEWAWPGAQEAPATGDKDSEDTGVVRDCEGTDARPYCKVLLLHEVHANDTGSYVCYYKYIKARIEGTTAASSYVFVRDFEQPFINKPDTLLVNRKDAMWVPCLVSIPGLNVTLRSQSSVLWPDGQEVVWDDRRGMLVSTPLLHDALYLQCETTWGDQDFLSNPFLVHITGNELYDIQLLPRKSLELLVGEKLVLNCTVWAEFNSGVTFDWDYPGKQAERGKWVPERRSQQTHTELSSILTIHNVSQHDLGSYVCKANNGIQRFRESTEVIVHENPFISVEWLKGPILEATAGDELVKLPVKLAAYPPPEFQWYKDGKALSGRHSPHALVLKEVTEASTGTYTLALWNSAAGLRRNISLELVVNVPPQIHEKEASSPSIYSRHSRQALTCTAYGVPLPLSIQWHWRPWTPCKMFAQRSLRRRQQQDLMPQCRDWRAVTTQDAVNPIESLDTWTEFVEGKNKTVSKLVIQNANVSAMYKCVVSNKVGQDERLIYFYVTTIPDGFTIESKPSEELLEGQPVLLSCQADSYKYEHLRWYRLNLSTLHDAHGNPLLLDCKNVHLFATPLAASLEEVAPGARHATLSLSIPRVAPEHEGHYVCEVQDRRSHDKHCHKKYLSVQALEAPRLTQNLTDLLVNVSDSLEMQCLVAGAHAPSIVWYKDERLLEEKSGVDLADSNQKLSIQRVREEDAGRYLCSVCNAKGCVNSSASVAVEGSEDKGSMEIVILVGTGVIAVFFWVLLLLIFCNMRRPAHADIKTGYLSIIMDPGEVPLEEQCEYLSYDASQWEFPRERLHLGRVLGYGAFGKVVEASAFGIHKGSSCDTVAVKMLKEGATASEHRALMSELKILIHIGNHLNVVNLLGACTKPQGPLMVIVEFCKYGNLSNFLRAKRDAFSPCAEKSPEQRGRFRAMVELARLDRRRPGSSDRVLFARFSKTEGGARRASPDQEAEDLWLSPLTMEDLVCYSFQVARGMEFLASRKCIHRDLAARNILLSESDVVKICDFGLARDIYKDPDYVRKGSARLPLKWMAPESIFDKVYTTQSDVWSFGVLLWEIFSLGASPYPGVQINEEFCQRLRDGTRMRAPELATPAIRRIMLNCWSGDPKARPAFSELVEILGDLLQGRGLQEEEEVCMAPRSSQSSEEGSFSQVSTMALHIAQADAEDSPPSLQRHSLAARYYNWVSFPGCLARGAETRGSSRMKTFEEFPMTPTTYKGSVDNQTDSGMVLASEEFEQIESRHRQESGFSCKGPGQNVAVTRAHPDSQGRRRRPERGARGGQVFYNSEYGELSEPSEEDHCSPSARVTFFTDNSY

In the case of `CN(C)c1ccc(/C=C2/C(=O)Nc3ccccc32)c2ccccc12` [MAZ51], the “LEC migration induced by HFD-lymph” value [1] is given as “inhibited” and the “VEGF-C-dependent and VEGF-C-independent VEGFR-3 phosphorylation” value (VEGF receptor (VEGFR)-3) is given as “potently inhibit”.

— patent publication US12611415B2, “Methods and compounds for treatment of metabolic disease” (Monash University, priority 2019, dated 2026)
